# From patent US20230256051A1, “MODIFIED KISSPEPTIN RECEPTOR AGONISTS FOR FATTY LIVER DISEASE” (priority 2020, published 2023)
# “Also recorded” adds a separate entry of the source. No end group written: not given here.
# What was measured:
# [1] = target: T1, KISS1R (Homo sapiens, UniProt Q969F8); set-up: expressed in transfected cells; host or cells: CHO (CHO-KISS1R), membrane preparations; settings: CHO-KISS1R membrane preparations; means +/- SE; n = 3-5; read-out: IC50 against [125I]KP-54 binding to KISS1R; cited from earlier work
# Target sequence in this assay (Q969F8 whole entry, species assumed): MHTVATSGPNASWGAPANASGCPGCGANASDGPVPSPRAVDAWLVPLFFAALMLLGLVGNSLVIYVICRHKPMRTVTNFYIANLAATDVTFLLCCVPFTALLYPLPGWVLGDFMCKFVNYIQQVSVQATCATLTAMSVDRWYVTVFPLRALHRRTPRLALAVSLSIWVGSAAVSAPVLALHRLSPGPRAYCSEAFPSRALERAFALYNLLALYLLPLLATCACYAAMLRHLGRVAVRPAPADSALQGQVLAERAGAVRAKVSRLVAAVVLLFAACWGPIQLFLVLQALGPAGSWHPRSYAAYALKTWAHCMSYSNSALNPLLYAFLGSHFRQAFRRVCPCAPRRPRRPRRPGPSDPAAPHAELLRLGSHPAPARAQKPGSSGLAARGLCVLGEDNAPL
# [2] = tested on: primary mouse hepatocytes; test: FFA-loaded isolated primary mouse hepatocytes treated with KP-10 or TAK
# Description: (n=4) * p < 0.05; One-way ANOVA followed by Dunnett’s post-hoc test.
# Primary hepatocytes from mice were isolated according to known methods. Mice (wild-type, C57BL6) or LKO and littermate controls were anesthetized using a ketamine/xylazine mixture (Henry Schein™). The liver was cannulated via the hepatic portal vein and first perfused with 37° C. Kreb’s Ringer solution containing EGTA for 10 minutes. After the first wash, a second Kreb’s Ringer solution containing CaCl2 and LIBERASE (Roche™) was used until the liver was thoroughly perfused. Hepatocytes were filtered through a gauze mesh and resuspended in William’s Media E (Sigma™) with 10 % FBS (Sigma™), 200 nM dexamethasone (Sigma™), 5 mM pen/strep (Fisher™), 2 mM L-glutamine (Fisher™). Cells were plated at a density of 3 × 10^5 on 6-well collagen-coated plates (Sigma™). Hepatocytes were left to recover overnight and then were serum starved for 3 hours prior to experiments. For free fatty acid (FFA) loading, 150 µM oleic and 150 µM palmitic acid was conjugated with 2% BSA (0.3 mM).
# [3] = cited from earlier work
# [4] = tested on: HFD-fed C57BL6/J mice (mouse model of NAFLD); test: Diet-induced (HFD) mouse model of NAFLD, TAK-448 infused by subcutaneous mini-osmotic pump; format: in vivo; settings: for liver steatosis / lipid accumulation (H&E, Oil Red O): 0.3 nmol/hour s.c. mini-osmotic pump, vs vehicle (PBS); for liver steatosis / lipid accumulation (H&E, Oil Red O) / insulin resistance / sensitivity (ITT) / glucose tolerance (GTT) / fasting glucose / body weight: 4 weeks; for insulin resistance / sensitivity (ITT) / glucose tolerance (GTT) / fasting glucose / body weight: 0.3 nmol/hour s.c. pump; for insulin resistance / sensitivity (ITT): 6 h fast, insulin 0.5 U/kg i.p.; for glucose tolerance (GTT): 12 h fast, D-glucose 1 g/kg i.p.; for liver triglycerides (TGs) / serum/blood glycerol: endpoint
# Description: Animals were treated for 4 weeks unless otherwise indicated and maintained on RD or HFD (total of 10 weeks). Blood glucose measurements were obtained via a small nick in the lateral tail vein using a glucometer (Bayer ContourTM). For glucose tolerance tests, mice were fasted for 12 hours and then injected intraperitoneally with D-glucose (1 g/kg). For the insulin tolerance tests, mice were fasted for 6 hours and then injected intraperitoneally with insulin (0.5 U/kg; Novo NordiskTM). Mice where individually housed in an 8-chamber Clinical Laboratory Animal Monitoring System (CLAMS) with controlled light and feeding. Carbon dioxide output, oxygen update, respiratory exchange ratio (RER), ambulatory movement, and feeding were measured over a 4-day period. Serum insulin levels were measured using the Ultra-Sensitive Mouse Insulin ELISA Kit (Crystal ChemTM). Serum glycerol levels were measured using the Glycerol Assay Kit (SigmaTM). Liver triglycerides were measured using the triglyceride quantification kit (MBLTM international Catalog # JM-K622-500). Free fatty acids were measured using the Free Fatty Acid Quantification Kit (SigmaTM, […]). ALT levels were measured using Liquid ALT (SGPT) Reagent set according to the manufacturer's instructions; cholesterol levels were measured using the Cholesterol set according to the manufacturer's instructions. Immunoblot assays were conducted according to known methods. Mouse liver tissue or primary hepatocytes were homogenized in RIPA lysis buffer containing protease inhibitors and centrifuged at 4° C.; the protein expression in lysates was analyzed by Western blot analysis. Protein was separated using SDS-PAGE and probed using the following antibodies: […] Mouse anti-β actin (1:5000, Thermo Fisher ScientificTM) or anti-vinculin (1:1000, Bio-RadTM) were used for loading control. Protein was then incubated for 1 hour in horseradish peroxidase (HRP)-conjugated rabbit (1:2500, Cell Signaling TechnologyTM) or mouse (1:2500, Cell Signaling TechnologyTM) secondary antibody. Blots were imaged by chemiluminescence with ChemiDocTM Touch imaging system (Bio-RadTM), SuperSignal and West Dura Extended Duration Substrate (Thermo ScientificTM). Protein levels were quantified using Image Lab Software (Bio-RadTM). Total RNA was extracted from cells using the Trizol method. Reverse transcription was done according to manufacturer's instructions using iScript RT Supermix (Bio-RadTM). Gene expression was determined using SYBR green real-time qPCR (RT-qPCR) as described previously using primers shown in Table 7, below. The following primers were purchased from BioRadTM (validated […] primers): Srebpl, Aqp3, Aqp9, Gpat2, Agpat2, Dgat1, Dgat2, Mogat1, Slc2a2, […]1, Sod1, Sod2, Gss, Ucp2, and Gpam. Il-13 was purchased from QiagenTM (QT00099554). Primers for Srebf1, Aqp3, Aqp9, Gpat2, Agpat2, Dgat1, Dgat2, Mogat1, Slc2a2, Lgpat1, Sod1, Sod2, Gss, Ucp2, and Gpam are pre-made and were purchased from BioRadTM. Liver tissue was immediately fixed in 10% neutral formalin after mice were euthanized. Tissue was processed for histology by the Research Pathology Services at Rutgers University. Livers were sectioned into 5 μm thick sections and stained with hematoxylin and eosin. Sections were examined by light microscopy for histopathological changes. C57BL/6J mice fed high fat diet (HFD) or control regular diet (RD) for 12 weeks (4-5/group). TAK-448 (TAK) or Vehicle (Veh i.e., PBS controls) were administered for 4 weeks using an ALZET mini-osmotic pump implanted subcutaneously. Steatosis is shown by hematoxylin and eosin stained mouse livers (lipid accumulation, small white droplets, arrowheads) and by Oil Red O staining of lipids (red dots) in control livers (FIG. 1A). This was prevented in the TAK-448 treated group (FIG. 1A). […]
# [5] = target: T1, KISS1R; set-up: expressed in transfected cells; host or cells: CHO cells; settings: [Ca2+] increasing activity, CHO cells expressing human KISS1R; (95% confidence interval); read-out: Agonist activity EC50; cited from earlier work
# Target sequence in this assay (Q969F8 whole entry): as the sequence (Q969F8 whole entry, species assumed) above
# [6] = tested on: healthy men; settings: cited from earlier work
# [7] = HFD livers, RT-qPCR, vs vehicle
# [8] = HFD livers, RT-qPCR, vs vehicle, listed as TAK
# [9] = HFD livers, western blot, vs vehicle
# [10] = HFD mice, vs vehicle, listed as TAK
# [11] = HFD mice, 4 weeks treatment, vs vehicle
# [12] = HFD mice, 4 weeks treatment, vs vehicle, listed as TAK
# [13] = HFD mice, 4 weeks treatment, vs vehicle, listed as TAK-488
# [14] = treated vs untreated mice, 4 weeks post treatment
compound,measurement,setting,value
YNWNTFGLRF [ANA14],IC50,[1],2.3 ± 1.6 nM
CNC(=N)NCCC[C@H](NC(=O)[C@H](CC(C)C)NC(=O)NNC(=O)[C@H](Cc1ccccc1)NC(=O)[C@@H](NC(=O)[C@H](CC(N)=O)NC(=O)[C@@H]1C[C@@H](O)CN1C(=O)[C@@H](Cc1ccc(O)cc1)NC(C)=O)[C@@H](C)O)C(=O)N[C@@H](Cc1c[nH]c2ccccc12)C(N)=O.O=C(O)C(F)(F)F [TAK-448],TG accumulation in FFA loaded hepatocytes,"[2]; KP 100 nM or TAK 3 nM, 150 µM palmitate and 150 µM oleate, wild-type hepatocytes, n=4",substantially decreased
same,half-life in the blood,[3],4 h
same,"hepatic expression of PPARy, CD36 and MOGAT1","[4]; HFD livers, RT-qPCR and western blot, vs vehicle, listed as TAK",significantly reduced; also recorded: inhibited
same,Gpam expression in liver,[4]; [7],significantly reduced
same,Lfabp1 and Gyk1 expression in liver,[4]; [7],not significant
same,Srebf1 expression in liver,[4]; [7],not significant
same,"liver markers for oxidative stress (Ucp2, Gss)",[4]; [7],lower levels
same,"liver markers for fibrosis (Tgfb1, Timp1)",[4]; [8],lower levels; also recorded: reduction
same,"liver pro-inflammatory markers (Ip10, Mcp1)",[4]; [8],lower levels; also recorded: reduction
same,Fasn expression in liver,[4]; [9],significant decrease
same,phosphorylation of AMPK in liver,[4]; [9],induced phosphorylation
same,"liver steatosis / lipid accumulation (H&E, Oil Red O)",[4]; HFD mice,prevented
same,"liver steatosis / lipid accumulation (H&E, Oil Red O)","[4]; HFD mice, listed as TAK",protected against; also recorded: suppressed
same,insulin resistance / sensitivity (ITT),"[4]; HFD mice, vs vehicle",protected against; also recorded: prevented insulin resistance
same,insulin resistance / sensitivity (ITT),[4]; [10],insulin sensitive; also recorded: improved
same,glucose tolerance (GTT),"[4]; HFD mice, vs vehicle",prevented glucose intolerance
same,glucose tolerance (GTT),[4]; [10],glucose tolerant; also recorded: improved
same,fasting glucose,"[4]; HFD mice, vs vehicle",prevented the rise
same,body weight,[4]; [10],significantly lower; also recorded: prevented a gain
same,fasting glucose,[4]; [10],lower
same,body weight,"[4]; HFD mice, vs vehicle, listed as TAK-488",lowering
same,food intake (CLAMS),"[4]; HFD mice, 4 weeks post treatment, vs vehicle",without a change
same,food intake (CLAMS),"[4]; HFD mice, 4 weeks post treatment, vs vehicle, listed as TAK",without a change; also recorded: without changing
same,food intake (CLAMS),"[4]; HFD mice, 4 weeks post treatment, vs vehicle, listed as Takeda-488",no difference
same,epididymal white adipose tissue (eWAT),[4]; [11],significant decrease
same,inguinal white adipose tissue (iWAT),[4]; [11],significant decrease
same,peripheral fat accumulation / adipose mass,[4]; [11],protected against
same,serum ALT,[4]; [11],significantly lower
same,serum/blood free fatty acids (FFA),[4]; [11],prevented
same,peripheral fat accumulation / adipose mass,[4]; [12],lowered
same,serum TGs,[4]; [12],significant decrease; also recorded: reduced
same,serum cholesterol,[4]; [12],significantly lower; also recorded: reduced
same,serum/blood free fatty acids (FFA),[4]; [12],significantly lower; also recorded: reduced
same,peripheral fat accumulation / adipose mass,[4]; [13],lowering
same,serum/blood free fatty acids (FFA),[4]; [13],lowering
same,liver triglycerides (TGs),[4]; [11],prevented
same,serum/blood glycerol,[4]; [11],prevented
same,liver triglycerides (TGs),[4]; [12],significant decrease
same,serum/blood glycerol,[4]; [12],significantly lower
same,liver triglycerides (TGs),[4]; [13],lowering
same,serum/blood glycerol,[4]; [13],lowering
same,heat production (CLAMS),[4]; [14],no differences
same,"respiratory exchange ratio (RER, CLAMS)",[4]; [14],no differences
YNWASFGLRF [ANA4],IC50,[1],43.5 ± 15.5 nM
"Palm-γ-DYNWNSFGT[Tz]LR[Me]Y-NH2 [Compound 6**, Decourt et al., 2016 numbering]",EC50,[5],0.17 nM
YNWDSFGLRF [ANA13],IC50,[1],140 ± 60.6 nM
"Palm-γ-DYNWNSFG′P[Tz]LRY-NH2 [Compound 5**, Decourt et al., 2016 numbering]",EC50,[5],0.13 nM
YNWNSFGLKF [ANA17],IC50,[1],9.8 ± 2.6 nM
YNWNSYGLRF [ANA15],IC50,[1],87.5 ± 30.7 nM
YNWNSFALRF [ANA7],IC50,[1],4.6 ± 1.5 nM
YNWNAFGLRF [ANA5],IC50,[1],0.8 ± 0.4 nM
YNANSFGLRF [ANA3],IC50,[1],2.7 ± 0.7 nM
YNWNSFGLRH [ANA18],IC50,[1],378 ± 266 nM
YAWNSFGLRF [ANA2],IC50,[1],145 ± 138 nM
YNWNSFGIRF [ANA 16],IC50,[1],39.9 ± 8.1 nM
FNWNSFGLRF [ANA11],IC50,[1],3.5 ± 2.1 nM
YDWNSFGLRF [ANA12],IC50,[1],29.1 ± 13.5 nM
ANWNSFGLRF [ANA1],IC50,[1],23.2 ± 14.3 nM
"YNWNSFGLRY [Compound 2**, Decourt et al., 2016 numbering]",EC50,[5],0.057 nM
Gly-Thr-Ser-Leu-Ser-Pro-Pro-Pro-Glu-Ser-Ser-Gly-Ser-Arg-Gln-Gln-Pro-Gly-Leu-Ser-Ala-Pro-His-Ser-Arg-Gln-Ile-Pro-Ala-Pro-Gln-Gly-Ala-Val-Leu-Val-Gln-Arg-Glu-Lys-Asp-Leu-Pro-Asn-Tyr-Asn-Trp-Asn-Ser-Phe-Gly-Leu-Arg-Phe-NH2 (GTSLSPPPESSGSRQQPGLSAPHSRQIPAPQGAVLVQREKDLPNYNWNSFGLRF-NH2) [Kisspeptin-54],food intake or appetite,[6],without altering
same,insulin secretion,[6],enhance
"Ac-YNWNSFGT[Tz]LR[Me]Y-NH2 [Compound 7**, Decourt et al., 2016 numbering]",EC50,[5],1.5 nM
YNWNSFGLRF [Kisspeptin-10],expression of de novo lipogenic genes,"[2]; primary mouse hepatocytes, treatment for 8 hours, RT-qPCR",reduced
same,phosphorylation of AMPK and its downstream target ACC,"[2]; primary mouse hepatocytes, western blot, n=4",stimulated phosphorylation
YNWNSAGLRF [ANA6],IC50,[1],110 ± 89.8 nM
YNWNSFGARF [ANA8],IC50,[1],77.4 ± 10 nM
"Ac-YNK(Palm-γ-D)NSFGT[Tz]LRY-NH2 [Compound 4**, Decourt et al., 2016 numbering]",EC50,[5],2.1 nM
